Patent US20240239735A1, “ACID ADDITION SALT OF ROCK INHIBITOR, AND CRYSTAL FORM, COMPOSITION AND PHARMACEUTICAL USE THEREOF” (WUHAN LL SCIENCE AND TECHNOLOGY DEVELOPMENT CO., LTD., priority 2021, published 2024)
Converted amounts (≈) assume the structure as drawn. Read-outs that look alike come from different tables or passages of the source. Values belong to the compound of their own block, whether it stands above or below them.

What was measured:
[1] = Hygroscopicity test by dynamic vapor sorption (DVS); type: physicochemical; conditions: for Hygroscopicity: DVS, assessment in words; for DVS weight gain (Wt. gain %): 25° C.
Procedure: The sample was subjected to water adsorption/desorption tests using a Vsorp (ProUmid GmbH & Co. KG, Germany) water adsorption analyzer. The sample was placed in a tared sample tray, and the change in the sample mass with humidity (0-90% RH) at 25° C. was recorded.

[2] = as above; type: physicochemical; conditions: from 0.0% RH to 95% RH
[3] = Solid state stability test (HPLC purity, XRPD); type: physicochemical; conditions: for Initial purity (Area %): 0 weeks; for Initial purity (Area %) / Purity (Area %): 265 nm; for Physical and chemical stability: 60° C./sealed and 40° C./75% RH open
Procedure: (§1) The instrument used for HIPLC analysis was Agilent TIPLC 1260 series.
The samples after being stored 0 days, 1 week, and 2 weeks were taken and each dissolved in a diluent to prepare about 1.0 mg/mL solution, which was tested for chemical stability by HPLC. The solid sample after being stored for 1 week or 2 weeks was tested for physical stability by XRPD.

[4] = Solubility test in biologically relevant media at 37° C. (HPLC, pH, XRPD of filter cake); type: physicochemical
Procedure: as §1
The suspension was incubated by shaking on a shaker at 100 rpm at 37° C. 1 mL of the dispersion was taken at 0.5 h, 2 h, and 24 h, and filtered. The filtrate was tested for the solubility by HPLC and for the pH value by a pH meter. The filter cake was characterized for the crystal form by XRPD.

[5] = Pharmacokinetic study in SD rats, intragastric administration; type: in vivo; conditions: for Cmax: compound A in plasma; for Exposure of compound A relative to administration of the free base: same dose
Procedure: In the experiment, 12 SD rats (purchased from Beijing Vital River Laboratory Animal Technology Co., Ltd.) weighing 180-280 g, half male and female, were used. The animals were randomly divided into four groups of 3 animals each, with female rats in the first and third groups and male rats in the second and fourth groups.
Blood was collected from the orbital venous plexus of rats at various time points (0.167 h, 0.5 h, 1 h, 2 h, 3 h, 4 h, 6 h, 9 h, 12 h, and 24 h) after administration. The concentration of compound A in the plasma was determined.
Data will be analyzed by a non-compartmental model using WinNonlin (version 5.2.1 Pharsight, Mountain View, CA) to obtain PK parameters (parameters selected for different routes of administration, such as C0, Cmax, Tmax, AUC0-last, AUCinf, T1/2, CL, and Vz).

[6] = female SD rats, 20 mg/kg in 5% TPGS, 20 mg/kg
[7] = female, SD, rat, plasma, po, 20 mg/kg, female SD rats, 20 mg/kg in 5% TPGS
[8] = male SD rats, 20 mg/kg in 5% TPGS, 20 mg/kg
[9] = SGF medium, 0.5 h, rounded values
[10] = male, SD, rat, plasma, po, 20 mg/kg, male SD rats, 20 mg/kg in 5% TPGS

XRPD pattern / crystal form before and after the DVS test [1]: crystal form remained unchanged
Hygroscopicity [1]: non-hygroscopic
DVS water absorbed [2]: about 0.2%
Initial purity (Area %) ([3]; HPLC method of 7-day test): 99.30 Area %
Purity (Area %) ([3]; 1 week, 40° C./75% RH open): 99.20 Area %
Purity (Area %) ([3]; 1 week, 60° C./sealed): 99.20 Area %
Solubility ([4]; FaSSIF, 37° C., 24 h): 0.28 µg/mL
pH of filtrate ([4]; FaSSIF, 24 h (0 h: 6.50)): 6.2
Solubility ([4]; FeSSIF, 37° C., 24 h): 132.92 µg/mL
pH of filtrate ([4]; FeSSIF, 24 h (0 h: 5.00)): 4.9
Solubility ([4]; SGF, 37° C., 24 h): 1425.24 µg/mL
XRPD (crystal form of filter cake) ([4]; SGF, 37° C., 24 h): Remains unchanged
pH of filtrate ([4]; SGF, 24 h (0 h: 1.20)): 1.2
SMILES: COc1cccc(CNC(=O)N2CCc3cc(-c4c[nH]nc4N)c(F)cc32)c1 [Fumarate crystal form II]

XRPD pattern / crystal form before and after the DVS test [1]: crystal form remained unchanged
DVS weight gain (Wt. gain %) ([1]; 0.0% RH to 80% RH): 1.3%
DVS weight gain (Wt. gain %) ([1]; 0.0% RH to 90% RH): 1.5%
Hygroscopicity [1]: slightly hygroscopic
AUClast [5, 6]: 14778 ± 3318 ng·h/mL
AUC(0-inf) [5, 7]: 18160 ± 150 ng·h/mL
half-life [5, 7]: 2.88 ± 0.46 h
Cmax ([5]; female, SD, rat, plasma, po, 20 mg/kg, female SD rats, 20 mg/kg in 5% TPGS, read-out: Cmax): 3620 ± 321 ng/mL
Tmax ([5]; female, SD, rat, plasma, po, 20 mg/kg, female SD rats, 20 mg/kg in 5% TPGS, read-out: Tmax): 0.67 ± 0.17 h
AUCinf [5, 8]: 19790 ± 2233 ng·h/mL
AUClast [5, 8]: 19604 ± 2132 ng·h/mL
T1/2 [5, 8]: 3.33 ± 0.40 h
Tmax [5, 8]: 1.00 ± 0.00 h
Cmax [5, 8]: 3297 ± 676 ng/mL
Initial purity (Area %) ([3]; HPLC method of 7-day test): 98.62 Area %
Initial purity (Area %) ([3]; HPLC method of 14-day test): 99.83 Area %
Purity (Area %) ([3]; 1 week, 40° C./75% RH open): 98.62 Area %
Purity (Area %) ([3]; 1 week, 60° C./sealed): 98.64 Area %
Purity (Area %) ([3]; 2 weeks, 40° C./75% RH open): 99.83 Area %
Purity (Area %) ([3]; 2 weeks, 60° C./sealed): 99.83 Area %
Physical and chemical stability ([3]; one week): physically and chemically stable
Physical and chemical stability ([3]; two weeks): physically and chemically stable
Solubility ([4]; FaSSIF, 37° C., 0.5 h): 8.24 µg/mL (≈ 21.6 µM)
Solubility ([4]; FaSSIF, 37° C., 2 h): 5.14 µg/mL (≈ 13.5 µM)
Solubility ([4]; FaSSIF, 37° C., 24 h): 6.44 µg/mL (≈ 16.9 µM)
XRPD (crystal form of filter cake) ([4]; FaSSIF, 37° C., 24 h): Remains unchanged
XRPD (crystal form of filter cake) ([4]; FaSSIF, 37° C., 24 h, listed as free base crystal form II): remained unchanged
pH of filtrate ([4]; FaSSIF, 24 h (0 h: 6.50)): 6.49
Solubility ([4]; FeSSIF, 37° C., 0.5 h): 33.38 µg/mL (≈ 87.5 µM)
Solubility ([4]; FeSSIF, 37° C., 2 h): 42.87 µg/mL (≈ 112 µM)
Solubility ([4]; FeSSIF, 37° C., 24 h): 48.68 µg/mL (≈ 128 µM)
XRPD (crystal form of filter cake) ([4]; FeSSIF, 37° C., 24 h): Remains unchanged
XRPD (crystal form of filter cake) ([4]; FeSSIF, 37° C., 24 h, listed as free base crystal form II): remained unchanged
pH of filtrate ([4]; FeSSIF, 24 h (0 h: 5.00)): 4.99
Solubility [4, 9]: 1000 µg/mL (≈ 2620 µM)
Solubility ([4]; SGF, 37° C., 0.5 h): 1010 µg/mL (≈ 2650 µM)
Solubility ([4]; SGF, 37° C., 2 h): 1027 µg/mL (≈ 2690 µM)
Solubility ([4]; SGF, 37° C., 24 h): 1167 µg/mL (≈ 3060 µM)
XRPD (crystal form of filter cake) ([4]; SGF, 37° C., 24 h): Remains unchanged
XRPD (crystal form of filter cake) ([4]; SGF, 37° C., 24 h, listed as free base crystal form II): remained unchanged
pH of filtrate ([4]; SGF, 24 h (0 h: 1.20)): 1.29
SMILES: COc1cccc(CNC(=O)N2CCc3cc(-c4c[nH]nc4N)c(F)cc32)c1 [Free base crystal form II, 5-(3-amino-1H-pyrazol-4-yl)-6-fluoro-N-(3-methoxybenzyl)indoline-1-carboxamide]

XRPD pattern / crystal form before and after the DVS test [1]: crystal form remained unchanged
DVS weight gain (Wt. gain %) ([1]; 0.0% RH to 80% RH): 2.3%
DVS weight gain (Wt. gain %) ([1]; 0.0% RH to 90% RH): 3.1%
Hygroscopicity [1]: slightly hygroscopic
Initial purity (Area %) ([3]; HPLC method of 7-day test): 96.97 Area %
Purity (Area %) ([3]; 1 week, 40° C./75% RH open): 96.97 Area %
Purity (Area %) ([3]; 1 week, 60° C./sealed): 96.13 Area %
Physical and chemical stability ([3]; one week): degraded
Solubility ([4]; FaSSIF, 37° C., 0.5 h): 19.34 µg/mL
Solubility ([4]; FaSSIF, 37° C., 2 h): 12.35 µg/mL
Solubility ([4]; FaSSIF, 37° C., 24 h): 13.41 µg/mL
pH of filtrate ([4]; FaSSIF, 24 h (0 h: 6.50)): 5.94
Solubility ([4]; FeSSIF, 37° C., 0.5 h): 96.23 µg/mL
Solubility ([4]; FeSSIF, 37° C., 2 h): 194.1 µg/mL
Solubility ([4]; FeSSIF, 37° C., 24 h): 255.4 µg/mL
XRPD (crystal form of filter cake) ([4]; FeSSIF, 37° C., 24 h): Remains unchanged
XRPD (crystal form of filter cake) ([4]; FeSSIF, 37° C., 24 h, listed as oxalate crystal form I): remained unchanged
pH of filtrate ([4]; FeSSIF, 24 h (0 h: 5.00)): 4.94
Solubility [4, 9]: 70 µg/mL
Solubility ([4]; SGF, 37° C., 0.5 h): 73.75 µg/mL
Solubility ([4]; SGF, 37° C., 2 h): 123.4 µg/mL
Solubility ([4]; SGF, 37° C., 24 h): 139.9 µg/mL
XRPD (crystal form of filter cake) ([4]; SGF, 37° C., 24 h): Remains unchanged
XRPD (crystal form of filter cake) ([4]; SGF, 37° C., 24 h, listed as oxalate crystal form I): remained unchanged
pH of filtrate ([4]; SGF, 24 h (0 h: 1.20)): 1.24
SMILES: COc1cccc(CNC(=O)N2CCc3cc(-c4c[nH]nc4N)c(F)cc32)c1 [Oxalate crystal form I]
XRPD (crystal form of filter cake) ([4]; FaSSIF, 37° C., 24 h): partially dissociated into the free base crystal form II

XRPD pattern / crystal form before and after the DVS test [1]: crystal form remained unchanged
DVS weight gain (Wt. gain %) ([1]; 0.0% RH to 80% RH): <0.2%
DVS weight gain (Wt. gain %) ([1]; 0.0% RH to 80% RH, listed as fumarate crystal form I): < 0.2%
DVS weight gain (Wt. gain %) ([1]; 0.0% RH to 90% RH): <0.2%
DVS weight gain (Wt. gain %) ([1]; 0.0% RH to 90% RH, listed as fumarate crystal form I): < 0.2%
Hygroscopicity [1]: non-hygroscopic
AUCinf [5, 6]: 33018 ± 1303 ng·h/mL
AUClast [5, 6]: 32884 ± 1318 ng·h/mL
T1/2 [5, 6]: 3.01 ± 0.22 h
Tmax [5, 6]: 0.83 ± 0.17 h
Cmax [5, 6]: 6357 ± 342 ng/mL
Exposure of compound A relative to administration of the free base ([5]; female rats): 2.23 times
Exposure of compound A relative to administration of the free base ([5]; male rats): 1.22 times
AUC(0-inf) [5, 10]: 24100 ± 2900 ng·h/mL
AUC(0-t) [5, 10]: 23900 ± 2930 ng·h/mL
half-life [5, 10]: 3.44 ± 0.29 h
Cmax ([5]; male, SD, rat, plasma, po, 20 mg/kg, male SD rats, 20 mg/kg in 5% TPGS, read-out: Cmax): 3050 ± 198 ng/mL
Tmax ([5]; male, SD, rat, plasma, po, 20 mg/kg, male SD rats, 20 mg/kg in 5% TPGS, read-out: Tmax): 0.67 ± 0.17 h
Initial purity (Area %) ([3]; HPLC method of 7-day test): 99.85 Area %
Initial purity (Area %) ([3]; HPLC method of 14-day test): 99.73 Area %
Purity (Area %) ([3]; 1 week, 40° C./75% RH open): 99.85 Area %
Purity (Area %) ([3]; 1 week, 60° C./sealed): 99.86 Area %
Purity (Area %) ([3]; 2 weeks, 40° C./75% RH open): 99.74 Area %
Purity (Area %) ([3]; 2 weeks, 60° C./sealed): 99.75 Area %
Physical and chemical stability ([3]; one week): physically and chemically stable
Physical and chemical stability ([3]; two weeks): physically and chemically stable
Solubility relative to free base crystal form II ([4]; 0.5 h, all three biologically relevant media): about twice
Solubility ([4]; FaSSIF, 37° C., 0.5 h): 12.19 µg/mL
Solubility ([4]; FaSSIF, 37° C., 2 h): 3.57 µg/mL
Solubility ([4]; FaSSIF, 37° C., 24 h): 4.25 µg/mL
pH of filtrate ([4]; FaSSIF, 24 h (0 h: 6.50)): 5.96
Solubility ([4]; FeSSIF, 37° C., 0.5 h): 109.2 µg/mL
Solubility ([4]; FeSSIF, 37° C., 2 h): 75.30 µg/mL
Solubility ([4]; FeSSIF, 37° C., 24 h): 61.39 µg/mL
pH of filtrate ([4]; FeSSIF, 24 h (0 h: 5.00)): 4.90
Solubility [4, 9]: 1900 µg/mL
Solubility ([4]; SGF, 37° C., 0.5 h): 1899 µg/mL
Solubility ([4]; SGF, 37° C., 2 h): 2135 µg/mL
Solubility ([4]; SGF, 37° C., 24 h): 2146 µg/mL
XRPD (crystal form of filter cake) ([4]; SGF, 37° C., 24 h): Trace solid
pH of filtrate ([4]; SGF, 24 h (0 h: 1.20)): 1.29
SMILES: COc1cccc(CNC(=O)N2CCc3cc(-c4c[nH]nc4N)c(F)cc32)c1 [Fumarate crystal form I]
Crystal form during the solubility test ([4]; 0.5 h, FaSSIF and FeSSIF media): dissociated into the free base crystal form II
